This is an account of results in patent US4839155A, “Iodotamoxifen derivatives and use for estrogen receptor-positive breast cancer detection and therapy” (National Research Development Corporation, priority 1986, dated 1989).

The test system of one series is MCF-7 cells. In words: MCF-7 cell growth, % of control. In kind it is cell-based, human. Particulars: for activity at 1 µM / activity at 0.1 µM / activity at 0.01 µM: Homo sapiens, MCF7, 37° C., 24 hours, ± standard deviation of four samples, >100 = growth stimulating (estrogenic); for activity at 1 µM: 10^-6 M; for activity at 0.1 µM: 10^-7 M; for activity at 0.01 µM: 10^-8 M; for activity in MCF-7 cell growth tests (in words): evaluation of Table 2, compared with tamoxifen.

Series [1] concerns the target T1, estrogen receptor (MCF-7 whole cells) (Homo sapiens, UniProt P03372).
T1 construct: host or cells: MCF-7 whole cells
T1 sequence (P03372 1-595): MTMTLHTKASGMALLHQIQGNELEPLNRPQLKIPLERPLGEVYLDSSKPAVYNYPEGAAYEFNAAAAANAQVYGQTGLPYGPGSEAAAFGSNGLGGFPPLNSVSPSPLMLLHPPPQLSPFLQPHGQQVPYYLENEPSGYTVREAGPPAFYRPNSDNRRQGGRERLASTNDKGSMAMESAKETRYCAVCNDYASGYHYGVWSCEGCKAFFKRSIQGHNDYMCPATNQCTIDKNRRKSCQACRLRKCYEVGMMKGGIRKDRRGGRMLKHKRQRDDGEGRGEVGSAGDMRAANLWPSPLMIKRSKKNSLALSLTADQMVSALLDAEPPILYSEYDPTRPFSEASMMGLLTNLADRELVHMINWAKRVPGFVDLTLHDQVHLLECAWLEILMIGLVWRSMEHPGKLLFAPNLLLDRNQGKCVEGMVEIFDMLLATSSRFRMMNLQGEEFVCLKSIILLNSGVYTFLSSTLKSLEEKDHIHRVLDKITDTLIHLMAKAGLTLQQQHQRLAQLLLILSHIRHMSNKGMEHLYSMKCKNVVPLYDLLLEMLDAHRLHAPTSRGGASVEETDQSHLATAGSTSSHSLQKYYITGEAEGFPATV
In words: Relative binding affinity (RBA), MCF-7 whole cell assay, inhibition of (3H)estradiol binding. The conditions noted are these: RBA = [I50](estradiol)/[I50](test compound) × 100; 37° C., 50 minutes, 10^-9 M (3H)estradiol. On the procedure:
A whole cell assay was then performed using the MCF-7 human breast cancer cell line obtained from the Michigan Cancer Foundation, Detroit, USA. MCF-7 cells were maintained at 37° C. in monolayer culture in closed T-25 dishes in mininal essential medium (MEM) supplemented with L-glutamine (0.6 mg/ml), gentamycin (40 micrograms/ml). penicillin (100 U/ml) streptomycin (100 micrograms/ml) and 10% inactivated fetal calf serum (inactivated for 1 hour at 56° C.). The MCF-7 cells were incubated at 37° C. for 50 minutes with 10^-9 M (^3 H)estradiol in the absence or presence of increasing amounts (10^-10 -10^-5 M) of the test compound or unlabelled estradiol (control). Bound compounds were then extracted with ethanol, and the amounts of estrogen receptor bound (^3 H) estradiol were measured. The RBA values were calculated as for the rat uterine cytosol.
(§1) The higher the values in the rat uterine cytosol test the greater the antiestrogenic effect. In the whole cell test, on the other hand, the estrogen receptors are localised in the cell nucleus and therefore bound to DNA. In the whole cell test, a low value indicating poor binding to cell nucleus ER and consequently low estrogenicity, can be considered favorable.

Series [2] addresses T2, estrogen receptor (rat uterine cytosol) (Rattus norvegicus, UniProt P06211).
T2 construct: from tissue; host or cells: immature rat uterus, cytosol
T2 sequence (P06211 1-600): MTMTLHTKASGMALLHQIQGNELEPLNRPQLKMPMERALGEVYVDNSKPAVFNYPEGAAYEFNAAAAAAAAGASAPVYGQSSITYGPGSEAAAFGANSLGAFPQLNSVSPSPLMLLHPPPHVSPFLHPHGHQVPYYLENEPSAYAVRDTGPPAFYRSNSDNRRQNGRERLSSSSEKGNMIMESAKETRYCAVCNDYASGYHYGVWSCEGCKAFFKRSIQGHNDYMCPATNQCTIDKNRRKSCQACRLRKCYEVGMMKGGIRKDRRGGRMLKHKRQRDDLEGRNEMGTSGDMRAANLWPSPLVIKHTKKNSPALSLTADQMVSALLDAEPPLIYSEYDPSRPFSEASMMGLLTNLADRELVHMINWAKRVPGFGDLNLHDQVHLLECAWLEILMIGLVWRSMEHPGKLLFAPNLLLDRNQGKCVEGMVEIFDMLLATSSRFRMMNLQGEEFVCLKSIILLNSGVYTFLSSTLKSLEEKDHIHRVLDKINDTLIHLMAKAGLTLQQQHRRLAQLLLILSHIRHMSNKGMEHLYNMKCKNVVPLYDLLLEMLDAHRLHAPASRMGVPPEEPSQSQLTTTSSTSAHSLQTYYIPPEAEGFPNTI
In words: Relative binding affinity (RBA), rat uterine cytosol, inhibition of (3H)estradiol binding. The conditions noted are these: RBA = [I50](estradiol)/[I50](test compound) × 100; 18° C., 30 minutes, 5×10^-9 M (3H)estradiol. On the procedure: Immature rat uterine cytosol was incubated at 18° C. for 30 minutes with 5×10^-9 M (^3 H)estradiol in the absence and presence of increasing amounts (10^-9 -10^-5 M) of the test compound or unlabelled estradiol (control). Unbound compounds were then removed with dextran-coated charcoal, and the amounts of estrogen receptor-bound (^3 H)estradiol were measured.
as §1

Series [3] relates to estrogen receptor. Particulars: prior art; cited from earlier work.
The conditions of series [4]: in vivo; prior art; cited from earlier work.
For series [5], the system named is estrogen receptor-positive breast cancer. In words: Potency in relation to estrogen receptor-positive breast cancer (summary statement). Particulars: compared with tamoxifen.
The conditions of series [6]: cited from earlier work.
For the next series, the system named is estrogen receptor (ER). The conditions noted are these: prior art; cited from earlier work.
Another series relates to rat uterine weight. Particulars: compared with tamoxifen; K. E. Allen et al. (1980); cited from earlier work.
Series [7] concerns estrogen receptor. The conditions noted are these: K. E. Allen et al. (1980); cited from earlier work.

Regarding `CC/C(=C(/c1ccc(OCCN(C)C)cc1)c1cccc(I)c1)c1ccccc1` [3-Iodotamoxifen, E 1-[4-(2-dimethylaminoethoxy)phenyl]-1-(3-iodophenyl)-2-phenyl-1-butene], in the series with MCF-7 cells, the activity at 1 µM amounted to 27 ± 5%, the activity at 0.1 µM stood at 68 ± 2%, the activity at 0.01 µM was 100 ± 8% and the “activity in MCF-7 cell growth tests (in words)” value (from here on “activity … (in words)”) is on record as “about as active as tamoxifen”.

Take `CC/C(=C(\c1ccc(Br)cc1)c1ccc(OCCN(C)C)cc1)c1ccccc1` [4-Bromotamoxifen, E 1-[4-(2-dimethylaminoethoxy)phenyl]-1-(4-bromophenyl)-2-phenyl-1-butene]: the “RBA (relative binding affinity), MCF-7 whole cells” value in [1] is listed as 0.02. Moreover, in the series with MCF-7 cells, the activity at 1 µM is 63 ± 8%, the activity at 0.1 µM came to 101 ± 8%, the activity at 0.01 µM came to 130 ± 10% and the “activity … (in words)” value is given as “less active than tamoxifen”. Moreover, the “RBA (relative binding affinity), Rat uterine cytosol” value in series [2] is listed as 3.

As for `CC/C(=C(\c1ccc(O)cc1)c1ccc(OCCN(C)C)cc1)c1ccccc1` [4-Hydroxytamoxifen], the “anti-estrogen potency in vitro” value with estrogen receptor [3] was “potent anti-estrogen”. Further, the “glucuronidation of the hydroxyl group followed by excretion” value in series [4] is recorded as “rapid glucuronidation of the hydroxyl group followed by excretion”.

For the molecule `CC/C(=C(\c1ccc(I)cc1)c1ccc(OCCN(C)C)cc1)c1ccccc1` [4-Iodotamoxifen, E 1-[4-(2-dimethylaminoethoxy)phenyl]-1-(4-iodophenyl)-2-phenyl-1-butene], the “RBA (relative binding affinity), MCF-7 whole cells” value in series [1] amounted to 0.05. Moreover, in the series with MCF-7 cells, the activity at 1 µM was determined as 26 ± 2%, the activity at 0.1 µM worked out at 42 ± 6% and the activity at 0.01 µM was 115 ± 6%. Further, the “potency in relation to estrogen receptor-positive breast cancer” value in [5] was “greater potency than tamoxifen”. In [2], the “RBA (relative binding affinity), Rat uterine cytosol” value is on record as 30.

`CC/C(=C(\c1ccc(OC)cc1)c1ccc(OCCN(C)C)cc1)c1ccccc1` [4-methoxy derivative]: in series [6] (compared with tamoxifen, K. E. Allen et al. (1980)), the “activity in other tests” value is listed as “about the same as tamoxifen”.

For the molecule `CC/C(=C(\c1ccc(I)cc1)c1ccc(OCCN(CC)CC)cc1)c1ccccc1` [E-1-[4-(2-Diethylaminoethoxy)phenyl]-1-(4-iodophenyl)-2-phenyl-1-butene], in the series with MCF-7 cells, the activity at 1 µM came out at 23 ± 2%, the activity at 0.1 µM stood at 35 ± 5% and the activity at 0.01 µM was 101 ± 7%.

Regarding `CC/C(=C(\c1ccc(I)cc1)c1ccc(OCCN2CCCC2)cc1)c1ccccc1` [Pyrrolidino analogue of 4-iodotamoxifen, E-1-[4-(2-(N-pyrrolidino)ethoxy)phenyl]-1-(4-iodophenyl-2-phenyl-1-butene)], in the series on MCF-7 cells, the activity at 1 µM is 20 ± 2%, the activity at 0.1 µM was 27 ± 3%, the activity at 0.01 µM was 84 ± 5% and the “activity … (in words)” value is on record as “particularly active”.

For `CC/C(=C(\c1ccccc1)c1ccc(OCCN(C)C)cc1)c1ccccc1` [Tamoxifen, Z (1,2-diphenyl)-1-[4-(2-dimethylaminoethoxy)-phenyl]-1-butene], in the series with MCF-7 cells, the activity at 1 µM was 30 ± 1% and the activity at 0.1 µM was 52 ± 1%. Further, in the series with estrogen receptor (ER), the “affinity for the estrogen receptor (ER)” value is listed as “relatively low affinity”.

`CC/C(=C(/c1ccc(Br)cc1)c1ccc(OCCN(C)C)cc1)c1ccccc1` [Z isomer of 4-bromotamoxifen, reference compound]: in the series on MCF-7 cells, the activity at 1 µM is 174 ± 8%, the activity at 0.1 µM stood at 163 ± 4% and the activity at 0.01 µM came to 110 ± 3%.

For the molecule `CC/C(=C(/c1ccc(I)cc1)c1ccc(OCCN(C)C)cc1)c1ccccc1` [Z isomer of 4-iodotamoxifen, reference compound], in the series with MCF-7 cells, the activity at 1 µM is 120 ± 3%, the activity at 0.1 µM was found to be 126 ± 6% and the activity at 0.01 µM stood at 99 ± 13%.

Consider `CC/C(=C(\c1ccc(Cl)cc1)c1ccc(OCCN(C)C)cc1)c1ccccc1` [chloro], for which the “anti-estrogenic activity, in vivo rat uterine weight tests” value (“anti-estrogenic activity” below) with rat uterine weight is given as “lower anti-estrogenic activity than tamoxifen”. For the same molecule, in [6], the “potency compared with tamoxifen (report by K. E. Allen et al.)” value is recorded as “of no greater potency than tamoxifen”. Further, the “estrogen receptor affinity in vitro, compared with tamoxifen” value in the series with estrogen receptor [7] is on record as “approximately equiactive”.

For `CC/C(=C(\c1ccc(F)cc1)c1ccc(OCCN(C)C)cc1)c1ccccc1` [fluoro], the “anti-estrogenic activity” value in the series on rat uterine weight is “lower anti-estrogenic activity than tamoxifen”. The “potency compared with tamoxifen (report by K. E. Allen et al.)” value in [6] is given as “of no greater potency than tamoxifen”. Further, the “estrogen receptor affinity in vitro, compared with tamoxifen” value with estrogen receptor [7] is “approximately equiactive”.

For the molecule `CC/C(=C(\c1ccc(C)cc1)c1ccc(OCCN(C)C)cc1)c1ccccc1` [methyl], the “anti-estrogenic activity” value in the series with rat uterine weight is reported as “lower anti-estrogenic activity than tamoxifen”. Also, in the series with estrogen receptor [7], the “estrogen receptor affinity in vitro, compared with tamoxifen” value is on record as “approximately equiactive”.
